According to ChEMBL document CHEMBL3352246, “Design and synthesis of novel 5-(3,4,5-trimethoxybenzoyl)-4-aminopyrimidine derivatives as potent and selective phosphodiesterase 5 inhibitors: scaffold hopping using a pseudo-ring by intramolecular hydrogen bond formation” (Bioorg Med Chem Lett, 2014):

Key:
[1] = biological target: cGMP-specific 3',5'-cyclic phosphodiesterase (Canis lupus familiaris, UniProt O77746); assay: Inhibition of canine lung PDE5 using [3H]cGMP substrate by radiolabeled nucleotide method
[2] = Selectivity index, ratio of IC50 for light activated bovine retina PDE6 to IC50 for canine lung PDE5
Corpus cavernosum = assay: Relaxant activity in rabbit corpus cavernosum assessed as reduction in phenyepinephrine-induced contraction; format: functional, tissue-based; settings: Oryctolagus cuniculus
[3] = Inhibition of light activated bovine retina PDE6 using [3H]cGMP substrate by radiolabeled nucleotide method; parameters: species or system Bos taurus
[4] = Selectivity index, ratio of IC50 for trypsin activated bovine retina PDE6 to IC50 for PDE5 (unknown origin)
[5] = biological target: cGMP-specific 3',5'-cyclic phosphodiesterase (Homo sapiens, UniProt O76074); assay: Inhibition of PDE5 (unknown origin)
[6] = Selectivity index, ratio of IC50 for light activated bovine retina PDE6 to IC50 for PDE5 (unknown origin)

| SMILES | IC50 [1] [nM] | Ratio IC50 [2] | EC50 (Corpus cavernosum) [nM] | IC50 [3] [nM] | Ratio IC50 [4] | IC50 [5] [nM] | Ratio IC50 [6] |
| --- | --- | --- | --- | --- | --- | --- | --- |
| COc1ccc(CNc2cc(OCc3ccccn3)ccc2C(=O)c2cc(OC)c(OC)c(OC)c2)cc1Cl | 0.66 | 18000 | > 100 | – | – | – | – |
| COC(=O)c1nc(N2CCC(O)CC2)c2cc(OCc3ccccc3)ccc2c1-c1cc(OC)c(OC)c(OC)c1 | 2 | – | – | 590 | – | – | – |
| COC(=O)c1nc(NCc2ccc(OC)c(Cl)c2)c2cc(OCc3ccccc3)ccc2c1-c1cc(OC)c(OC)c(OC)c1 | 3.5 | – | – | > 10000 | – | – | – |
| COC(=O)c1ncc2cc(OCc3ccccn3)ccc2c1-c1cc(OC)c(OC)c(OC)c1 | 34 | – | – | > 10000 | – | – | – |
| COc1ccc(COc2nc(OCc3ccccn3)ncc2C(=O)c2cc(OC)c(OC)c(OC)c2)cc1Cl | 1.5 | – | – | – | – | – | – |
| COc1ccc(CN(C)c2nc(OCc3ccccn3)ncc2C(=O)c2cc(OC)c(OC)c(OC)c2)cc1Cl | 5 | – | – | – | – | – | – |
| COC(=O)c1c(-c2cc(OC)c(OC)c(OC)c2)c2ccc(OCc3ccccn3)cc2c(=O)n1-c1ccc(N)cc1 | – | – | – | – | 32 | 1 | 650 |
| COc1ccc(CNc2nc(N3CCc4ccccc4C3)ncc2C(=O)c2cc(OC)c(OC)c(OC)c2)cc1Cl | 0.053 | 3200 | > 100 | – | – | – | – |

More lines, now with the values ahead:

| IC50 [1] [nM] | Ratio IC50 [2] | EC50 (Corpus cavernosum) [nM] | IC50 [3] [nM] | Ratio IC50 [4] | IC50 [5] [nM] | Ratio IC50 [6] | SMILES |
| --- | --- | --- | --- | --- | --- | --- | --- |
| 0.38 | 1600 | > 100 | – | – | – | – | COc1ccc(CNc2nc(OCc3ccccc3)ncc2C(=O)c2cc(OC)c(OC)c(OC)c2)cc1Cl |
| 1.5 | 6700 | > 100 | – | – | – | – | COc1ccc(CNc2nc(N3CCOCC3)ncc2C(=O)c2cc(OC)c(OC)c(OC)c2)cc1Cl |
| 1.7 | 2200 | 10 | – | – | – | – | COCCOc1ncc(C(=O)c2cc(OC)c(OC)c(OC)c2)c(NCc2ccc(OC)c(Cl)c2)n1 |
| 0.13 | 2400 | 53 | – | – | – | – | COc1ccc(CNc2nc(OCc3ccccn3)ncc2C(=O)c2cc(OC)c(OC)c(OC)c2)cc1Cl |
| 1.8 | 2800 | 11 | – | – | – | – | COc1ccc(CNc2nc(N3CCOC(CO)C3)ncc2C(=O)c2cc(OC)c(OC)c(OC)c2)cc1Cl (stereo not given) |
| 2.7 | > 3700 | 29 | – | – | – | – | COc1ccc(CNc2nc(N(C)CCO)ncc2C(=O)c2cc(OC)c(OC)c(OC)c2)cc1Cl |
| 0.74 | 2000 | – | – | – | – | – | COc1ccc(CNc2nc(N3CCCCC3)ncc2C(=O)c2cc(OC)c(OC)c(OC)c2)cc1Cl |
| 3.4 | 560 | 3.1 | – | – | – | – | COc1ccc(CNc2nc(OCc3ncccn3)ncc2C(=O)c2cc(OC)c(OC)c(OC)c2)cc1Cl |
